This experiment addresses T1, geranylgeranyl diphosphate synthase (GGPPS) (Saccharomyces cerevisiae, UniProt Q12051).
T1 sequence (Q12051 1-335): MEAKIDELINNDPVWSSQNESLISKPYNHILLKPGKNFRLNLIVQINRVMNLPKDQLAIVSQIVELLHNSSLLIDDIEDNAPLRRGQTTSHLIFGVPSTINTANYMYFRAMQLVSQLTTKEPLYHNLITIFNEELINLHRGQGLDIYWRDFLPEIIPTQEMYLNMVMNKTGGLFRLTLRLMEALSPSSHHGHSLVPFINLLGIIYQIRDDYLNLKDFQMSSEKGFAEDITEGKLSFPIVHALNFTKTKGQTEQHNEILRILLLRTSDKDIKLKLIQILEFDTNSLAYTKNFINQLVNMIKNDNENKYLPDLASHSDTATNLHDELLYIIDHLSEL
Kind of experiment: X-ray crystal structure. The experiment is classed as binding.

Structures are written as SMILES.

Consider `CN(CCCCc1ccccc1)CCC(O)(P(=O)(O)O)P(=O)(O)O` [compound 5, N-[methyl(4-phenylbutyl)]-3-aminopropyl-1-hydroxy-1,1-bisphosphonate], for which the “X-ray crystal structure (2.08 Å, soaked crystals)” value is “We thus crystallized and determined the x-ray crystallographic structure of BPH-210 bound to GGPPS”.
